In the assay the test system is CD4+ and CD8+ T cells. In words: MHC class I expression on T cells after stimulation of PBMCs, flow cytometry. The assay is classed as cell-based, human. The settings on record: PBMCs from healthy donor, with IL-2, 72 hours. On the procedure:
FIG. 1: Expression of MHC class I after stimulation of T cells with increasing concentrations of GnRH II. PBMCs from a healthy donor was stimulated with GnRH II and IL-2 for 72 hours. Data points represent mean fluorescent intensity of MCH class I expression on CD4^+ T cells (blue triangles) or CD8^+ T cells (black squares) measured with flow cytometry. Human peripheral blood mononuclear cells (PBMCs) were purified from healthy donors with Ficoll-Hypaque density centrifugation. Cells were cultured in RPMI-1640 medium (Invitrogen) supplemented with 10% fetal bovine serum, 100 μg/mL ampicilin and 100 μg/mL streptomycin for 24-72 hours in 37° C., 5% CO2. Cells were stimulated with a compound according to the invention and analysed for expression of cell specific surface markers and […] (monoclonal antibodies from BD Pharmingen) with flow cytomtery.
In general terms: A flow cytometer gives signals particle by particle.

Square brackets hold non-standard residues; d marks the D form. Peptide text beside a SMILES is read from it. pGlu = O=C1CC[C@@H](C(=O)O)N1

In the case of `NC(=O)CNC(=O)[C@@H]1CCCN1C(=O)[C@H](Cc1ccc(O)cc1)NC(=O)[C@H](Cc1c[nH]c2ccccc12)NC(=O)CNC(=O)[C@H](Cc1c[nH]cn1)NC(=O)[C@H](CO)NC(=O)[C@H](Cc1c[nH]c2ccccc12)NC(=O)[C@H](Cc1c[nH]cn1)NC(=O)[C@@H]1CCC(=O)N1` [GnRH II] ([pGlu]HWSHGWYPG-NH2), the “MHC class I expression on T cells” value is recorded as “directly activates these cells”.

(Values after patent publication US11564969B2, “Immunorhelin compounds for intracellular infections” (ISR IMMUNE SYSTEM REGULATION HOLDING AB (PUBL), priority 2017, dated 2023).)
